Assay results reported in ChEMBL document CHEMBL4665642, “Anticancer profile of newly synthesized BRAF inhibitors possess 5-(pyrimidin-4-yl)imidazo[2,1-b]thiazole scaffold” (Bioorg Med Chem, 2019).

Columns and labels:
Type in all cases: functional
Conditions in all cases: read-out: Activity
TK-10 = experiment: Cytotoxicity against human TK-10 cells assessed as cell viability at 10 uM incubated for 48 hrs by sulforhodamine B assay relative to control
NCI-H226 = experiment: Cytotoxicity against human NCI-H226 cells assessed as cell viability at 10 uM incubated for 48 hrs by sulforhodamine B assay relative to control
NCI-H23 = experiment: Cytotoxicity against human NCI-H23 cells assessed as cell viability at 10 uM incubated for 48 hrs by sulforhodamine B assay relative to control
HCT-15 = experiment: Cytotoxicity against human HCT-15 cells assessed as cell viability at 10 uM incubated for 48 hrs by sulforhodamine B assay relative to control
OVCAR-3 = experiment: Cytotoxicity against human OVCAR-3 cells assessed as cell viability at 10 uM incubated for 48 hrs by sulforhodamine B assay relative to control
HOP-92 = experiment: Cytotoxicity against human HOP-92 cells assessed as cell viability at 10 uM incubated for 48 hrs by sulforhodamine B assay relative to control
SNB-75 = experiment: Cytotoxicity against human SNB-75 cells assessed as cell viability at 10 uM incubated for 48 hrs by sulforhodamine B assay relative to control
A549 = experiment: Cytotoxicity against human A549 cells assessed as cell viability at 10 uM incubated for 48 hrs by sulforhodamine B assay relative to control
CAKI-1 = experiment: Cytotoxicity against human CAKI-1 cells assessed as cell viability at 10 uM incubated for 48 hrs by sulforhodamine B assay relative to control
NCI-H322M = experiment: Cytotoxicity against human NCI-H322M cells assessed as cell viability at 10 uM incubated for 48 hrs by sulforhodamine B assay relative to control
SN12C = experiment: Cytotoxicity against human SN12C cells assessed as cell viability at 10 uM incubated for 48 hrs by sulforhodamine B assay relative to control
OVCAR-5 = experiment: Cytotoxicity against human OVCAR-5 cells assessed as cell viability at 10 uM incubated for 48 hrs by sulforhodamine B assay relative to control
SR = experiment: Cytotoxicity against human SR cells assessed as cell viability at 10 uM incubated for 48 hrs by sulforhodamine B assay relative to control
COLO 205 = experiment: Cytotoxicity against human COLO 205 cells assessed as cell viability at 10 uM incubated for 48 hrs by sulforhodamine B assay relative to control
M14 = experiment: Cytotoxicity against human M14 cells assessed as cell viability at 10 uM incubated for 48 hrs by sulforhodamine B assay relative to control
SNB-19 = experiment: Cytotoxicity against human SNB-19 cells assessed as cell viability at 10 uM incubated for 48 hrs by sulforhodamine B assay relative to control
HCT-29 = experiment: Cytotoxicity against human […] cells assessed as cell viability at 10 uM incubated for 48 hrs by sulforhodamine B assay relative to control
SK-MEL-5 = experiment: Cytotoxicity against human SK-MEL-5 cells assessed as cell viability at 10 uM incubated for 48 hrs by sulforhodamine B assay relative to control
UO-31 = experiment: Cytotoxicity against human UO-31 cells assessed as cell viability at 10 uM incubated for 48 hrs by sulforhodamine B assay relative to control
Hs-578T = experiment: Cytotoxicity against human HS-578T cells assessed as cell viability at 10 uM incubated for 48 hrs by sulforhodamine B assay relative to control
MCF7 = experiment: Cytotoxicity against human MCF7 cells assessed as cell viability at 10 uM incubated for 48 hrs by sulforhodamine B assay relative to control
OVCAR-8 = experiment: Cytotoxicity against human OVCAR-8 cells assessed as cell viability at 10 uM incubated for 48 hrs by sulforhodamine B assay relative to control
DU-145 = experiment: Cytotoxicity against human DU-145 cells assessed as cell viability at 10 uM incubated for 48 hrs by sulforhodamine B assay relative to control
UACC-257 = experiment: Cytotoxicity against human UACC-257 cells assessed as cell viability at 10 uM incubated for 48 hrs by sulforhodamine B assay relative to control
LOX IMVI = experiment: Cytotoxicity against human LOX IMVI cells assessed as cell viability at 10 uM incubated for 48 hrs by sulforhodamine B assay relative to control
SK-MEL-2 = experiment: Cytotoxicity against human SK-MEL-2 cells assessed as cell viability at 10 uM incubated for 48 hrs by sulforhodamine B assay relative to control
RXF 393 = experiment: Cytotoxicity against human RXF 393 cells assessed as cell viability at 10 uM incubated for 48 hrs by sulforhodamine B assay relative to control
U-251 = experiment: Cytotoxicity against human U-251 cells assessed as cell viability at 10 uM incubated for 48 hrs by sulforhodamine B assay relative to control
MOLT-4 = experiment: Cytotoxicity against human MOLT-4 cells assessed as cell viability at 10 uM incubated for 48 hrs by sulforhodamine B assay relative to control
ACHN = experiment: Cytotoxicity against human ACHN cells assessed as cell viability at 10 uM incubated for 48 hrs by sulforhodamine B assay relative to control
786-0 = experiment: Cytotoxicity against human 786-0 cells assessed as cell viability at 10 uM incubated for 48 hrs by sulforhodamine B assay relative to control
PC-3 = experiment: Cytotoxicity against human PC-3 cells assessed as cell viability at 10 uM incubated for 48 hrs by sulforhodamine B assay relative to control
SF-295 = experiment: Cytotoxicity against human SF-295 cells assessed as cell viability at 10 uM incubated for 48 hrs by sulforhodamine B assay relative to control
HCC 2998 = experiment: Cytotoxicity against human HCC 2998 cells assessed as cell viability at 10 uM incubated for 48 hrs by sulforhodamine B assay relative to control
SK-MEL-28 = experiment: Cytotoxicity against human SK-MEL-28 cells assessed as cell viability at 10 uM incubated for 48 hrs by sulforhodamine B assay relative to control
MDA-MB-231 = experiment: Cytotoxicity against human MDA-MB-231 cells assessed as cell viability at 10 uM incubated for 48 hrs by sulforhodamine B assay relative to control
RPMI-8226 = experiment: Cytotoxicity against human RPMI-8226 cells assessed as cell viability at 10 uM incubated for 48 hrs by sulforhodamine B assay relative to control
HCT-116 = experiment: Cytotoxicity against human HCT-116 cells assessed as cell viability at 10 uM incubated for 48 hrs by sulforhodamine B assay relative to control
SF-539 = experiment: Cytotoxicity against human SF-539 cells assessed as cell viability at 10 uM incubated for 48 hrs by sulforhodamine B assay relative to control
HOP-62 = experiment: Cytotoxicity against human HOP-62 cells assessed as cell viability at 10 uM incubated for 48 hrs by sulforhodamine B assay relative to control
IGROV-1 = experiment: Cytotoxicity against human IGROV-1 cells assessed as cell viability at 10 uM incubated for 48 hrs by sulforhodamine B assay relative to control

## O=C(NCCNc1nccc(-c2c(-c3cccc(F)c3)nc3sccn23)n1)C1CCCCC1
TK-10
  viability at 10 µM: 88.6%
NCI-H226
  viability at 10 µM: 60.9%
NCI-H23
  viability at 10 µM: 97%
HCT-15
  viability at 10 µM: 61%
OVCAR-3
  viability at 10 µM: 76.3%
HOP-92
  viability at 10 µM: 135%
SNB-75
  viability at 10 µM: 88.6%
A549
  viability at 10 µM: 78.8%
CAKI-1
  viability at 10 µM: 70.4%
NCI-H322M
  viability at 10 µM: 104%
SN12C
  viability at 10 µM: 67.5%
OVCAR-5
  viability at 10 µM: 141%
SR
  viability at 10 µM: 91%
COLO 205
  viability at 10 µM: 53.5%
M14
  viability at 10 µM: 73.6%
SNB-19
  viability at 10 µM: 96%
HCT-29
  viability at 10 µM: 43.6%
SK-MEL-5
  viability at 10 µM: 59.6%
UO-31
  viability at 10 µM: 40.3%
Hs-578T
  viability at 10 µM: 91.8%
MCF7
  viability at 10 µM: 82%
OVCAR-8
  viability at 10 µM: 56.9%
DU-145
  viability at 10 µM: 81.6%
UACC-257
  viability at 10 µM: 113%
LOX IMVI
  viability at 10 µM: 65.9%
SK-MEL-2
  viability at 10 µM: 60.1%
RXF 393
  viability at 10 µM: 78.2%
U-251
  viability at 10 µM: 90.5%
MOLT-4
  viability at 10 µM: 55.4%
ACHN
  viability at 10 µM: 67.1%
786-0
  viability at 10 µM: 69.1%
PC-3
  viability at 10 µM: 75.2%
SF-295
  viability at 10 µM: 93.6%
HCC 2998
  viability at 10 µM: 104%
SK-MEL-28
  viability at 10 µM: 106%
MDA-MB-231
  viability at 10 µM: 104%
RPMI-8226
  viability at 10 µM: 81.6%
HCT-116
  viability at 10 µM: 51.9%
SF-539
  viability at 10 µM: 84.9%
HOP-62
  viability at 10 µM: 109%
IGROV-1
  viability at 10 µM: 45.1%

## O=S(=O)(NCCCNc1nccc(-c2c(-c3cccc(F)c3)nc3sccn23)n1)c1cccc2ccccc12
TK-10
  viability at 10 µM: 71.7%
NCI-H226
  viability at 10 µM: 36.8%
NCI-H23
  viability at 10 µM: 66.2%
HCT-15
  viability at 10 µM: 18.1%
OVCAR-3
  viability at 10 µM: 68.7%
HOP-92
  viability at 10 µM: 94.6%
SNB-75
  viability at 10 µM: 86.5%
A549
  viability at 10 µM: 45.6%
CAKI-1
  viability at 10 µM: 29.1%
NCI-H322M
  viability at 10 µM: 81.6%
SN12C
  viability at 10 µM: 46.9%
OVCAR-5
  viability at 10 µM: 80.9%
SR
  viability at 10 µM: 62%
COLO 205
  viability at 10 µM: 21.5%
M14
  viability at 10 µM: 42.7%
SNB-19
  viability at 10 µM: 69%
HCT-29
  viability at 10 µM: 1.97%
SK-MEL-5
  viability at 10 µM: 31.8%
UO-31
  viability at 10 µM: 20%
Hs-578T
  viability at 10 µM: 55.9%
MCF7
  viability at 10 µM: 37.4%
OVCAR-8
  viability at 10 µM: 38.5%
DU-145
  viability at 10 µM: 49.9%
UACC-257
  viability at 10 µM: 72.8%
LOX IMVI
  viability at 10 µM: 20.9%
SK-MEL-2
  viability at 10 µM: 47.8%
RXF 393
  viability at 10 µM: 62.9%
U-251
  viability at 10 µM: 59.1%
MOLT-4
  viability at 10 µM: 29.3%
ACHN
  viability at 10 µM: 34.7%
786-0
  viability at 10 µM: 52.9%
PC-3
  viability at 10 µM: 41.2%
SF-295
  viability at 10 µM: 34.6%
HCC 2998
  viability at 10 µM: 16.3%
SK-MEL-28
  viability at 10 µM: 77.5%
MDA-MB-231
  viability at 10 µM: 4.05%
RPMI-8226
  viability at 10 µM: 44.9%
HCT-116
  viability at 10 µM: 32.4%
SF-539
  viability at 10 µM: 72.8%
HOP-62
  viability at 10 µM: 80.7%
IGROV-1
  viability at 10 µM: 22.3%

## O=C(NCCCNc1nccc(-c2c(-c3cccc(F)c3)nc3sccn23)n1)C1CCCCC1
TK-10
  viability at 10 µM: 78.9%
NCI-H226
  viability at 10 µM: 63.6%
NCI-H23
  viability at 10 µM: 75.7%
HCT-15
  viability at 10 µM: 58%
OVCAR-3
  viability at 10 µM: 82.1%
HOP-92
  viability at 10 µM: 105%
SNB-75
  viability at 10 µM: 87.7%
A549
  viability at 10 µM: 51.6%
CAKI-1
  viability at 10 µM: 55.7%
NCI-H322M
  viability at 10 µM: 86%
SN12C
  viability at 10 µM: 67.3%
OVCAR-5
  viability at 10 µM: 105%
SR
  viability at 10 µM: 70.2%
COLO 205
  viability at 10 µM: 49.8%
M14
  viability at 10 µM: 57.6%
SNB-19
  viability at 10 µM: 89.8%
HCT-29
  viability at 10 µM: 40.1%
SK-MEL-5
  viability at 10 µM: 52.9%
UO-31
  viability at 10 µM: 41%
Hs-578T
  viability at 10 µM: 80.2%
MCF7
  viability at 10 µM: 36.5%
OVCAR-8
  viability at 10 µM: 71.1%
DU-145
  viability at 10 µM: 92.2%
UACC-257
  viability at 10 µM: 95.2%
LOX IMVI
  viability at 10 µM: 57.4%
SK-MEL-2
  viability at 10 µM: 78.4%
RXF 393
  viability at 10 µM: 94.3%
U-251
  viability at 10 µM: 79.6%
MOLT-4
  viability at 10 µM: 69.5%
ACHN
  viability at 10 µM: 45.3%
786-0
  viability at 10 µM: 62.1%
PC-3
  viability at 10 µM: 73.9%
SF-295
  viability at 10 µM: 89.8%
HCC 2998
  viability at 10 µM: 90.5%
SK-MEL-28
  viability at 10 µM: 84.5%
MDA-MB-231
  viability at 10 µM: 80.6%
RPMI-8226
  viability at 10 µM: 80%
HCT-116
  viability at 10 µM: 49.3%
SF-539
  viability at 10 µM: 100%
HOP-62
  viability at 10 µM: 98.2%
IGROV-1
  viability at 10 µM: 37.5%
